Experimental data from ChEMBL document CHEMBL5137008, “Recent advances of antitumor shikonin/alkannin derivatives: A comprehensive overview focusing on structural classification, synthetic approaches, and mechanisms of action” (Eur J Med Chem, 2022).
Values belong to the compound of their own block, whether it stands above or below them.

Legend:
[1] = test system: HCT-15; experiment: Anticancer activity against human HCT-15 cells assessed as reduction in cell viability for 72 hrs by MTT assay; format: functional, cell-based; conditions: HCT-15, 72 h
[2] = Cytotoxicity against human skin fibroblast cells incubated for 24 hrs by MTT assay; format: toxicity, cell-based
[3] = test system: K562; experiment: Anticancer activity against human K562 cells assessed as reduction in cell viability for 72 hrs by MTT assay; format: functional, cell-based; conditions: K562, 72 h
[4] = test system: MCF7; experiment: Anticancer activity against human MCF7 cells assessed as reduction in cell viability for 72 hrs by MTT assay; format: functional, cell-based; conditions: MCF7, 72 h
[5] = Cytotoxicity against human skin fibroblast cells assessed as reduction in cell viability incubated for 72 hrs by MTT assay; format: toxicity, cell-based
[6] = test system: HeLa; experiment: Antiproliferative activity against human HeLa cells assessed as inhibition of cell growth incubated for 24 hrs by MTT assay; format: functional, cell-based
[7] = test system: SGC-7901; experiment: Anticancer activity against human SGC-7901 cells incubated for 48 hrs by MTT assay; format: functional, cell-based; conditions: SGC-7901, 48 h
[8] = test system: MGC-803; experiment: Anticancer activity against human MGC-803 cells incubated for 48 hrs by MTT assay; format: functional, cell-based; conditions: MGC-803, 48 h
[9] = test system: SMMC-7721; experiment: Anticancer activity against human SMMC-7721 cells incubated for 48 hrs by MTT assay; format: functional, cell-based; conditions: SMMC-7721, 48 h
[10] = test system: A549; experiment: Antiproliferative activity against human A549 cells assessed as inhibition of cell growth incubated for 24 hrs by MTT assay; format: functional, cell-based; conditions: A549, 24 h
[11] = Cytotoxicity against human L02 cells incubated for 48 hrs by MTT assay; format: toxicity, cell-based
[12] = test system: MDA-MB-231; experiment: Antiproliferative activity against human MDA-MB-231 cells assessed as inhibition of cell growth incubated for 24 hrs by MTT assay; format: functional, cell-based; conditions: MDA-MB-231, 24 h
[13] = test system: U-87 MG; experiment: Anticancer activity against human U87 cells incubated for 48 hrs by MTT assay; format: functional, cell-based, U-87MG ATCC
[14] = Antiproliferative activity against human BGC cells assessed as inhibition of cell proliferation incubated for 20 hrs by MTT assay; format: functional, cell-based
[15] = test system: A549; experiment: Antiproliferative activity against human A549 cells assessed as inhibition of cell proliferation incubated for 20 hrs by MTT assay; format: functional, cell-based; conditions: A549, 20 h
[16] = test system: L02; experiment: Antiproliferative activity against human L02 cells assessed as inhibition of cell proliferation incubated for 20 hrs by MTT assay; format: functional, cell-based; conditions: L02, 20 h
[17] = test system: HepG2; experiment: Antiproliferative activity against human HepG2 cells assessed as inhibition of cell proliferation incubated for 20 hrs by MTT assay; format: functional, cell-based; conditions: HepG2, 20 h
[18] = test system: MCF7; experiment: Antiproliferative activity against human MCF7 cells assessed as inhibition of cell proliferation incubated for 20 hrs by MTT assay; format: functional, cell-based; conditions: MCF7, 20 h
[19] = test system: HeLa; experiment: Antiproliferative activity against human HeLa cells assessed as inhibition of cell proliferation incubated for 20 hrs by MTT assay; format: functional, cell-based
[20] = test system: SJRH30; experiment: Anticancer activity against human Rh30 cells assessed as inhibition of cell proliferation incubated for 72 hrs by SRB assay; format: functional, cell-based; conditions: SJRH30, 72 h
[21] = test system: MOLT-4; experiment: Anticancer activity against human MOLT-4 cells assessed as inhibition of cell proliferation incubated for 72 hrs by SRB assay; format: functional, cell-based; conditions: MOLT-4, 72 h
[22] = test system: A549; experiment: Anticancer activity against human A549 cells assessed as inhibition of cell proliferation incubated for 72 hrs by SRB assay; format: functional, cell-based; conditions: A549, 72 h
[23] = test system: Ca9-22; experiment: Cytotoxicity against human Ca9-22 cells assessed as reduction in cell viability incubated for 48 hrs by MTT assay; format: functional, cell-based; conditions: Ca9-22, 48 h
[24] = test system: Ca9-22; experiment: Cytotoxicity against human Ca9-22 cells assessed as reduction in cell viability incubated for 24 hrs by MTT assay; format: functional, cell-based; conditions: Ca9-22, 24 h
[25] = test system: WM164; experiment: Antitumor activity against human WM164 cells assessed as reduction in cell viability incubated for 72 hrs by XTT assay; format: functional, cell-based; conditions: WM164, 72 h
[26] = test system: SBcl2; experiment: Antitumor activity against human SBcl2 cells assessed as reduction in cell viability incubated for 72 hrs by XTT assay; format: functional, cell-based; conditions: SBcl2, 72 h
[27] = Antitumor activity against human WM9 cells assessed as reduction in cell viability incubated for 72 hrs by XTT assay; format: functional, cell-based; conditions: WM9, 72 h
[28] = test system: MUGMel2; experiment: Antitumor activity against human MUG-Mel2 cells assessed as reduction in cell viability incubated for 72 hrs by XTT assay; format: functional, cell-based; conditions: MUGMel2, 72 h
[29] = Anticancer activity against human A875 cells assessed as inhibition of cell growth incubated for 72 hrs by MTT assay; format: functional, cell-based; conditions: A875, 72 h
[30] = test system: A549; experiment: Anticancer activity against human A549 cells assessed as inhibition of cell growth incubated for 72 hrs by MTT assay; format: functional, cell-based; conditions: A549, 72 h
[31] = test system: SW872; experiment: Anticancer activity against human SW872 cells assessed as inhibition of cell growth incubated for 72 hrs by MTT assay; format: functional, cell-based; conditions: SW872, 72 h
[32] = test system: A549; experiment: Antiproliferative activity against human A549 cells assessed as inhibition of cell growth incubated for 24 hrs in presence of foetal bovine serum by MTT assay; format: functional, cell-based; conditions: A549, 24 h
[33] = Cytotoxicity against human L02 cells assessed as inhibition of cell growth incubated for 24 hrs in presence of foetal bovine serum by MTT assay; format: toxicity, cell-based
[34] = test system: HepG2; experiment: Anticancer activity against human HepG2 cells assessed as inhibition of cell growth incubated for 24 hrs by MTT assay; format: functional, cell-based; conditions: HepG2, 24 h
[35] = test system: HeLa; experiment: cells; conditions: Homo sapiens, 24 h
[36] = Cytotoxicity against human HEK293T cells assessed as inhibition of cell growth incubated for 24 hrs in presence of foetal bovine serum by MTT assay; format: toxicity, cell-based, HEK-293T
[37] = test system: MCF7; experiment: Antiproliferative activity against human MCF7 cells assessed as inhibition of cell growth incubated for 24 hrs in presence of foetal bovine serum by MTT assay; format: functional, cell-based; conditions: MCF7, 24 h
[38] = Anticancer activity against human A875 cells assessed as inhibition of cell growth incubated for 24 hrs by MTT assay; format: functional, cell-based; conditions: A875, 24 h
[39] = Cytotoxicity against human L02 cells assessed as inhibition of cell growth incubated for 24 hrs by MTT assay; format: toxicity, cell-based
[40] = Antitubulin activity against bovine brain tubulin polymerization preincubated with compound followed by GTP addition by turbidimetry-based spectrophotometric method; design: species or system Bos taurus

Compound: CC(C)=CC[C@H](O)C1=CC(=O)c2c(O)ccc(O)c2C1=O [ALKANNIN]
IC50 [1]: 1110 nM
IC50 at 24 h [2]: 1800 nM
IC50 [3]: 1500 nM
IC50 [4]: 2620 nM
IC50 at 72 h [5]: 1500 nM

Compound: COc1cccc2c1C(=O)c1c(O)c3c(c(O)c1C2=O)C[C@@](O)(C(=O)CO)C[C@@H]3O[C@H]1C[C@H](N)[C@H](O)[C@H](C)O1 [DOXORUBICIN]
IC50 [6]: 4610 nM
IC50 [7]: 720 nM
IC50 [8]: 480 nM
IC50 [9]: 460 nM
IC50 [10]: 5130 nM
IC50 at 48 h [11]: > 100000 nM
IC50 [12]: 4210 nM
IC50 [13]: 570 nM

Compound: CC(C)=CC[C@@H](OC(=O)C(C)C)C1=CC(=O)c2c(O)ccc(O)c2C1=O [ISOBUTYLSHIKONIN]
IC50 [23]: 1800 nM
IC50 [24]: 1980 nM

Compound: CC(C)=CC[C@@H](OC(=O)C=C(C)C)C1=CC(=O)c2c(O)ccc(O)c2C1=O [DIMETHYLACRYLSHIKONIN]
IC50 [25]: 8300 nM
IC50 [26]: 1100 nM
IC50 [27]: 2700 nM
IC50 [28]: 7200 nM

Compound: COc1cc2c(c(OC)c1OC)-c1ccc(OC)c(=O)cc1[C@@H](NC(C)=O)CC2 [COLCHICINE]
IC50 [32]: 470 nM
IC50 at 24 h [33]: 2300 nM
IC50 [34]: 4650 nM
IC50 [35]: 17800 nM
IC50 at 24 h [36]: 1030 nM
IC50 [37]: 220 nM
IC50 [38]: 750 nM

Second part, led by results:

IC50 [15]: > 100000 nM
IC50 [17]: 5350 nM
IC50 [18]: 2550 nM
IC50 [19]: 1930 nM
Compound: CC(C)=CC[C@@H](OC(=O)[C@@H](C)N1C(=O)c2ccccc2C1=O)C1=CC(=O)c2c(O)ccc(O)c2C1=O
IC50 [14]: 13300 nM
IC50 [16]: > 100000 nM

IC50 [21]: 300 nM
IC50 [22]: 460 nM
Compound: CC(C)=CC[C@@H](OC(=O)c1ccco1)C1=CC(=O)c2c(O)ccc(O)c2C1=O
IC50 [20]: 470 nM

IC50 [30]: 2100 nM
IC50 [31]: 360 nM
Compound: CC(C)=CC[C@@H](OC(=O)/C=C/c1ccc(F)c(F)c1)C1=CC(=O)c2c(O)ccc(O)c2C1=O
IC50 [29]: 550 nM

IC50 [15]: > 100000 nM
IC50 [17]: 1920 nM
IC50 [18]: 3550 nM
IC50 [19]: 1260 nM
Compound: CC(C)=CC[C@@H](OC(=O)[C@@H](Cc1ccccc1)N1C(=O)C2C3C=CC(C3)C2C1=O)C1=CC(=O)c2c(O)ccc(O)c2C1=O (some centres undefined)
IC50 [14]: 11600 nM
IC50 [16]: > 100000 nM

IC50 [34]: 430 nM
IC50 [40]: 16900 nM
IC50 [35]: 4440 nM
Compound: CC(C)=CC[C@@H](OC(=O)CCCOc1ccc(Cl)cc1C)C1=CC(=O)c2c(O)ccc(O)c2C1=O
IC50 at 24 h [39]: > 100000 nM
IC50 [38]: 1520 nM
